Measured values as given in patent publication US10398720B2, “Compound of the avermectin family or of the milbemycin family for the treatment and/or prevention of atopic dermatitis” (GALDERMA SA, priority 2013, dated 2019).

Test system: Der f-induced AD mouse model
Assay: Dermatophagoides farinae (Der f)-induced atopic dermatitis (AD)-like mouse model, topical route
Assay type: in vivo, Balb/c mice
Settings: for cytokine concentration / production (IL-10, IL-13, IL-17, IL-4, IL-5, IFNg; FIG. 5): 0.1% ivermectin; for inflammatory response induced by Der f application: topical daily day 19 to day 36, solutions in acetone, ivermectin 0.003-0.1%; for ear edema (ear thickness, FIG. 1): topical daily day 19 to day 36
Procedure: 1.1. […] Der f has been purchased from Greer Laboratories and a Der f solution has been prepared at 12.5 mg/ml in 70% DMSO in MilliQ water. […] Balb/c mice strain has been used for the study. These animals have been obtained from controlled breeding and were specific pathogen free. The animals have been provided by Janvier SAS, France. AD-like lesions have been induced once a week by topical application of 20 μl of Der f solution on the right ear for 5 weeks at […], day 29 and day 36. Mice have been daily treated from day 19 to day 36 with the different solutions administrated by the topical route. Measurement of ear thickness have been monitored before and 24 hours after each allergen application. After day 19, ears have been daily measured before compound application. Blood samples have been collected into appropriate vials under isoflurane anaesthesia for further analysis (IgE). Mice have been then immediately euthanized. After mouse euthanasia, the right ear has been collected and has been washed in ethanol 70% and has been rinsed in PBS. Three skin biopsies have then been collected for cytokines profiles, eosinophil peroxidase (EPO) quantification and histological slides in order to quantify the mastocytes and in order to measure the epidermis thickness.

[1] = histological slides, 0.05% triamcinolone acetonide, ivermectin 0.003, 0.01, 0.03 and 0.1%
[2] = right ear skin biopsy, 0.05% triamcinolone acetonide, 0.1% tacrolimus
[3] = 0.05% triamcinolone acetonide, 0.1% tacrolimus
[4] = 0.05% triamcinolone acetonide, 0.1% tacrolimus, ivermectin 0.003, 0.01, 0.03 and 0.1%

| Molecule | IgE secretion (total seric IgE, FIG. 4) (blood sample, 0.05% triamcinolone acetonide, ivermectin 0.003, 0.01, 0.03 and 0.1%) | epidermal thickness (FIG. 2) [1] | mastocyte count (within the dermis, FIG. 6) [1] | dose response of the anti-inflammatory activity (ivermectin 0.003 to 0.1% topical) | anti-inflammatory response, higher concentrations (ivermectin 0.01, 0.03 and 0.1% topical, compared with 0.003%) | inflammatory response, compared with positive controls (ivermectin at 0.003% topical vs triamcinolone acetonide at 0.05% and tacrolimus at 0.1%) | EPO (eosinophil peroxidase, FIG. 3) (right ear skin biopsy, 0.05% triamcinolone acetonide, ivermectin 0.003, 0.01 and 0.03%) | cytokine concentration / production (IL-10, IL-13, IL-17, IL-4, IL-5, IFNg; FIG. 5) [2] | inflammatory response induced by Der f application [3] | ear edema (ear thickness, FIG. 1) [4] | interleukin IL-17 production (FIG. 5) (right ear skin biopsy, 0.1% tacrolimus) |
| --- | --- | --- | --- | --- | --- | --- | --- | --- | --- | --- | --- |
| Ivermectin | significantly decreases | lessens | lessens | inverse dose response | less potent than the weakest concentration (0.003%) | to the same extent as triamcinolone acetonide at 0.05% and as tacrolimus at 0.1% | significantly decreases | significantly decreases | able to reduce | significantly decreases | – |
| C=CC[C@@H]1/C=C(\C)C[C@H](C)C[C@H](OC)[C@H]2O[C@@](O)(C(=O)C(=O)N3CCCC[C@H]3C(=O)O[C@H](/C(C)=C/[C@@H]3CC[C@@H](O)[C@H](OC)C3)[C@H](C)[C@@H](O)CC1=O)[C@H](C)C[C@@H]2OC [tacrolimus] | – | – | – | – | – | – | – | totally reduces | completely inhibit | totally reduces | totally reduces |
